Data taken from ChEMBL document CHEMBL3272337, “Synthesis of a fragment of human parathyroid hormore, hPTH-(44-68)” (J Med Chem, 1977).
Calls of active or inactive are those of the source. Peptide text beside a SMILES is read from it.

Tests used:
[1] = test system: Gallus gallus; test: Induction of PTH-like activity in iv dosed chick by hypercalcemic assay; format: functional, organism-based
[2] = target: T1, Adenylate cyclase (Homo sapiens) (UniProt Q8NFM4+O60503+Q08828+P40145+O60266+O95622+O43306+Q08462+P51828); test: Agonist activity at adenylyl cyclase (unknown origin) at 1.35 x 10^-4 M; format: protein assay
[3] = target: T1, Adenylate cyclase (Homo sapiens); test: Inhibition of bPTH-stimulated adenylyl cyclase (unknown origin) activity at 500:1 compound to native hormone molar ratio; format: protein assay

CC(C)C[C@H](NC(=O)[C@H](CO)NC(=O)[C@H](CCCCN)NC(=O)[C@H](CCC(=O)O)NC(=O)[C@H](Cc1cnc[nH]1)NC(=O)[C@H](CO)NC(=O)[C@H](CCC(=O)O)NC(=O)[C@@H](NC(=O)[C@H](CC(C)C)NC(=O)[C@@H](NC(=O)[C@H](CC(N)=O)NC(=O)[C@H](CC(=O)O)NC(=O)[C@H](CCC(=O)O)NC(=O)[C@H](CCCCN)NC(=O)[C@H](CCCCN)NC(=O)[C@H](CCCNC(=N)N)NC(=O)[C@@H]1CCCN1C(=O)[C@H](CCCNC(=N)N)NC(=O)[C@H](CCC(N)=O)NC(=O)[C@H](CO)NC(=O)CNC(=O)[C@H](C)NC(=O)[C@H](CC(=O)O)NC(=O)[C@@H](N)CCCNC(=N)N)C(C)C)C(C)C)C(=O)NCC(=O)O (H-RDAGSQRPRKKEDNVLVESHEKSLG-OH)
inactive: Activity [1] | Activity [2] | inhibition [3]
